In PMC7979765, “trans-Translation inhibitors bind to a novel site on the ribosome and clear Neisseria gonorrhoeae in vivo” (Nature Communications, 2021):
Values after ≈ are worked out from the molar mass of the structure shown. Values joined by “and” are separate entries in the source; they are usually repeats but may differ in a detail not shown here. Identical values can stand only once.

What was measured:
trans-translation [1] = experiment: microbe, parasite or virus in culture; format: cell-based, Escherichia coli; conditions: for Luminescence readout (Envision plate reader) / Luminescence, background subtracted (DMSO control): per replicate
Protocol: To verify that MBX-4132 retains activity as an inhibitor of trans-translation, we measured its dose-dependent activity against the non-stop luciferase reporter assay strain E. coli SB75 ΔtolC::kan (pluc-trpAt) essentially as described, with modifications. Briefly, serial 1.5-fold dilutions of MBX-4132 in DMSO were transferred to 96-well assay plates (Costar 3195), followed by the addition of 50 µl of an overnight culture of SB75 ΔtolC::kan (pluc-trpAt) that had been diluted to a final OD600 of 0.4 with LB media supplemented with 100 µg ampicillin/ml and 1 mM IPTG. […] The assay plates were incubated at room temperature for 2 h, and 50 µl of BrightGlo (Promega) bioluminescence reagent was added to each well. After 10 min incubation, bioluminescence intensity was measured using an Envision multi-label plate reader (Perkin Elmer). Each assay comprised three technical replicates, and the experiment was repeated three times. The fold induction for each MBX-4132 treated sample as compared to the DMSO-only sample was calculated for each technical replicate, and the average and standard deviation of the three technical was calculated. The IC50 was determined using a 4-parameter nonlinear curve fitting algorithm (GraphPad Prism).

[2] = Serum protein binding, murine; format: in vitro ADME, mouse; conditions: mouse, serum, murine serum; read-out: murine serum binding (% bound)
Protocol: Serum protein binding was determined using an equilibrium dialysis method as described. The amount of compound in each chamber (buffer and serum) was measured using methods for reverse-phase liquid chromatography/mass spectroscopy methods that were customized for each compound.

HeLa cells = experiment: Mammalian cell cytotoxicity (CC50); format: cell-based, human; conditions: listed as MBX-3535; for NORMALIZED DATA (Fraction DMSO Control): HeLa, replicates
Protocol: (§1) The half maximal cytotoxic concentration (CC50) of each compound against HeLa cells (ATCC CCL-2) was measured as previously described. […] The mean values for each biological replicate were averaged, and the CC50 was determined using a 4-parameter nonlinear curve fitting algorithm (GraphPad Prism). The average of the CC50s from two biological replicates was calculated and reported.

[3] = Mammalian cell cytotoxicity (CC50); format: cell-based, human; conditions: human, HeLa cells (ATCC CCL-2)
Protocol: as §1

[4] = Aqueous solubility (nephelometric); format: physicochemical; conditions: aqueous solution (buffer not named); single replicates
trans-translation [5] = experiment: In vitro trans-translation assay (S12 extract, nanoluc-ns, tmRNA-nl); format: biochemical, Escherichia coli; conditions: in vitro reconstituted assay
Description: The in vitro trans-translation assay is designed to produce the first 157 amino acids of nano-luciferase from a non-stop mRNA (nanoluc-ns) and add the C-terminal peptide […] via a mutant version of E. coli tmRNA (tmRNA-nl) to reconstitute an active nano-luciferase[45]. In this assay, the tagged nano-luciferase gene has >30,000-fold increase in activity over the peptide made in the absence of tmRNA-nl.
S12 lysates were made according to the procedure of Kim, et al.[46]. Briefly, a culture of E. coli BL21 (DE3) cells containing a pET28 plasmid carrying the E. coli T7 polymerase gene was grown at 37 °C to an OD600 = 0.8, induced with 1 mM IPTG and grown for an additional 3 h. Cells were harvested by centrifugation at 20,000 × g for 10 min at 4 °C and the pellet was resuspended in buffer A (20 mM Tris-acetate (pH 8.2), 14 mM Mg(OAc)2, 60 mM potassium glutamate, 1 mM DTT). Cells were lysed by sonication, the lysate was clarified by centrifugation at 12,000 × g for 10 min, and the supernatant was stored at −80 °C.
E. coli SmpB was purified as previously described. tmRNA-nl, a variant of E. coli tmRNA encoding the final 11 residues of nano-luciferase, was transcribed from the tmRNA-nl synthetic DNA sequence in vitro, purified, and folded as previously described for wild-type E. coli tmRNA[3]. The nanoluc-stop template DNA was prepared as previously described[3] by PCR amplification from pMC1 using T7 universal and nanoluc-stop primers. The nanoluc-ns was prepared in a similar manner using pMC1 with T7 universal and nanoluc-ns primers.
For in vitro trans-translation, tmRNA-nl and SmpB were premixed and stored on ice. S12 lysate (2 μl), freshly made polymix buffer (2 μl)[47] (final reaction concentrations 5 mM Hepes pH 7.6, 5 mM NH4Cl, 0.5 mM CaCl2, 1.5 mm MgCl2, 1 mM DTT, 8 mm putrescene, 2 mm ATP, 2 mM GTP, 1 mM CTP, 1 mM UTP, 0.3 mM each amino acid, 3 mg/ml E. coli tRNAs), nanoluc-ns template (0.5 μl; 60 ng) and 2 µl water were mixed and incubated at 37 °C for 5 min. This solution was dispensed to tubes containing 0.5 μl of different concentrations of an inhibitor prepared in 75% acetonitrile, 25% water, and incubated at 37 °C for 5 min. The tmRNA-nl/SmpB mixture (0.5 μl each, 2 μM final) was added to each tube and the samples were incubated at 37 °C for 1.5 h. NanoLuc substrate (Promega) was prepared according to the manufacturer’s instructions, one volume of this substrate solution was added to each sample tube, and the reactions transferred to a white 96-well plate. Luminescence readings were obtained using the SpectraMax i3 microplate reader. Data analysis was performed using GraphPad Prism 8.

[6] = [Compound] 0.0625 µM, listed as MBX-3535
[7] = [Compound] 0.125 µM, listed as MBX-3535
[8] = [Compound] 0.1875 µM, listed as MBX-3535
[9] = [Compound] 0.25 µM, listed as MBX-3535
[10] = [Compound] 0.375 µM, listed as MBX-3535
[11] = [Compound] 0.5 µM, listed as MBX-3535
[12] = [Compound] 0.75 µM, listed as MBX-3535
[13] = [Compound] 1 µM, listed as MBX-3535
[14] = [Compound] 1.5 µM, listed as MBX-3535
[15] = HeLa cytotoxicity, one value per replicate

O=C(Nc1nnc(-c2ccc(F)cc2)o1)c1ccc(Cl)cc1 [KKL-35, 4-chloro-N-(5-(4-fluorophenyl)-1,3,4-oxadiazol-2-yl)benzamide]
IC50 (trans-translation [1]; Eco Luc reporter, one value per replicate, listed as MBX-3535, read-out: IC50): 0.138 µM and 0.151 µM | IC50 (trans-translation [1]; Escherichia coli, E. coli non-stop luciferase reporter, Fig. 1B, read-out: in vivo luc-trpAt IC50): 0.1 µM | IC50 (trans-translation [1]; Escherichia coli, Eco Luc reporter, one value per replicate, read-out: IC50): 0.156 µM | Luminescence readout (Envision plate reader) (trans-translation [1]; [Compound] 0.046875 µM, listed as MBX-3535): 793720 and 792160 and 789800 | Luminescence readout (Envision plate reader) (trans-translation [1]; [6]): 778080 and 758560 and 769120 | Luminescence, background subtracted (DMSO control) (trans-translation [1]; [6]): -25080 and -11160 and -10320 | Luminescence readout (Envision plate reader) (trans-translation [1]; [Compound] 0.09375 µM, listed as MBX-3535): 796160 and 783440 and 809640 | Luminescence readout (Envision plate reader) (trans-translation [1]; [7]): 838680 and 824680 and 839280 | Luminescence, background subtracted (DMSO control) (trans-translation [1]; [7]): 35520 and 54960 and 59840 | Luminescence readout (Envision plate reader) (trans-translation [1]; [8]): 931120 and 911280 and 917880 | Luminescence, background subtracted (DMSO control) (trans-translation [1]; [8]): 127960 and 141560 and 138440 | Luminescence readout (Envision plate reader) (trans-translation [1]; [9]): 975560 and 925440 and 953800 | Luminescence, background subtracted (DMSO control) (trans-translation [1]; [9]): 172400 and 155720 and 174360 | Luminescence readout (Envision plate reader) (trans-translation [1]; [10]): 918760 and 868800 and 899520 | Luminescence, background subtracted (DMSO control) (trans-translation [1]; [10]): 115600 and 99080 and 120080 | Luminescence readout (Envision plate reader) (trans-translation [1]; [11]): 894760 and 832920 and 864960 | Luminescence, background subtracted (DMSO control) (trans-translation [1]; [11]): 91600 and 63200 and 85520 | Luminescence readout (Envision plate reader) (trans-translation [1]; [12]): 938080 and 885720 and 902440 | Luminescence, background subtracted (DMSO control) (trans-translation [1]; [12]): 134920 and 116000 and 123000 | Luminescence readout (Envision plate reader) (trans-translation [1]; [13]): 1090520 and 985400 and 1035440 | Luminescence, background subtracted (DMSO control) (trans-translation [1]; [13]): 287360 and 215680 and 256000 | Luminescence readout (Envision plate reader) (trans-translation [1]; [14]): 1101720 and 996520 and 1037480 | Luminescence, background subtracted (DMSO control) (trans-translation [1]; [14]): 298560 and 226800 and 258040 | fraction unbound [2]: < 0.01 | CC50 (HeLa cells; [15]): 30.6 µM and 26 µM and 22 µM and 29.1 µM and 34.1 µM | NORMALIZED DATA (Fraction DMSO Control) (HeLa cells; [CMPD] 0.78125 µM): 0.9983 Fraction DMSO Control and 0.9009 Fraction DMSO Control and 0.8841 Fraction DMSO Control and 1.049 Fraction DMSO Control and 0.992 Fraction DMSO Control and 0.9968 Fraction DMSO Control | NORMALIZED DATA (Fraction DMSO Control) (HeLa cells; [CMPD] 1.5625 µM): 0.9916 Fraction DMSO Control and 0.9029 Fraction DMSO Control and 0.888 Fraction DMSO Control and 1.05 Fraction DMSO Control and 0.9984 Fraction DMSO Control and 0.9932 Fraction DMSO Control | NORMALIZED DATA (Fraction DMSO Control) (HeLa cells; [CMPD] 3.125 µM): 0.9963 Fraction DMSO Control and 0.9267 Fraction DMSO Control and 0.8661 Fraction DMSO Control and 1.071 Fraction DMSO Control and 1.023 Fraction DMSO Control and 1.002 Fraction DMSO Control | NORMALIZED DATA (Fraction DMSO Control) (HeLa cells; [CMPD] 6.25 µM): 1.002 Fraction DMSO Control and 0.9334 Fraction DMSO Control and 0.856 Fraction DMSO Control and 1.09 Fraction DMSO Control and 1.008 Fraction DMSO Control and 1.022 Fraction DMSO Control | NORMALIZED DATA (Fraction DMSO Control) (HeLa cells; [CMPD] 12.5 µM): 0.9694 Fraction DMSO Control and 0.9248 Fraction DMSO Control and 0.8736 Fraction DMSO Control and 1.069 Fraction DMSO Control and 1.012 Fraction DMSO Control and 1.014 Fraction DMSO Control | NORMALIZED DATA (Fraction DMSO Control) (HeLa cells; [CMPD] 25 µM): 0.8994 Fraction DMSO Control and 0.8509 Fraction DMSO Control and 0.795 Fraction DMSO Control and 0.4926 Fraction DMSO Control and 0.6416 Fraction DMSO Control and 0.799 Fraction DMSO Control | NORMALIZED DATA (Fraction DMSO Control) (HeLa cells; [CMPD] 50 µM): 0.6292 Fraction DMSO Control and 0.6178 Fraction DMSO Control and 0.5987 Fraction DMSO Control and 0.3592 Fraction DMSO Control and 0.3855 Fraction DMSO Control and 0.3659 Fraction DMSO Control | NORMALIZED DATA (Fraction DMSO Control) (HeLa cells; [CMPD] 100 µM): 0.6116 Fraction DMSO Control and 0.6041 Fraction DMSO Control and 0.6139 Fraction DMSO Control and 0.191 Fraction DMSO Control and 0.1882 Fraction DMSO Control and 0.2089 Fraction DMSO Control | CC50 [3, 15]: 30.5 µM | CC50 ([3]; half-maximal cytotoxic concentration against HeLa cells): > 100 µM | Solubility [4]: 6.3 µM (≈ 2 µg/mL) | IC50 (trans-translation [5]): 0.4 µM
